“Also recorded” adds a separate entry of the source.
Assays:
NK cells and T cells = experiment: Flow cytometry assay of lymphocyte apoptosis induced by Hp(2-20)-activated monocytes; format: cell-based, human
From the text: (§1) Peripheral blood was obtained from healthy blood donors at Sahlgren's Hospital, Göteborg, Sweden. […] See Hansson et al. 1996. […] J Immunol. 156:427.
Apoptosis was monitored by use of flow cytometry, as described elsewhere. See Mellqvist et al. 2000. […] Blood. 96:1961-8. T cells or NK cells were gated after exposure to monocytes, and the gate was set to comprise lymphocytes with a reduced forward scatter and an increased right angle scatter characteristic of apoptosis. See Hansson et al. 1996. Two additional methods were used to determine apoptosis in NK cells and T cells: analysis of DNA strand breaks by terminal deoxynucleotidyl transferase-mediated bromolated dUTP nick end labelling of DNA fragments (TUNEL assay) and Annexin V staining, as described elsewhere. See Mellqvist et al.; Hansson et al. 1999. […] J Interferon Cytokine Res. 19:1135-44.
One million cells were stained with appropriate fluorescein isothiocyanate (FITC)- and phycoerythrin (PE)-conjugated monoclonal antibodies (Becton & Dickinson, Stockholm, Sweden; 10 μl/10^6 cells), as described in detail elsewhere. See Hansson et al. 1999. Cells were analyzed by use of flow cytometry on a FACSort with a Lysys II software program (Becton & Dickinson). Lymphocytes were gated on the basis of forward and right angle scatter. The flow rate was adjusted to <200 cells x s^−1 and at least 5×10^3 cells were analyzed for each sample.
After incubation, cells in a lymphocyte gate were assayed for morphological features of apoptosis (reduced forward and increased right angle scatter) by use of flow cytometry. In A, data are the frequency of apoptotic CD56^+ (NK; dark gray bars) or CD3ε^+ (T; open bars) after the following treatments:
Monocytes and/or lymphocytes were prepared as described in Methods. After incubation for 16 hrs, cells in a lymphocyte gate were assayed for morphological features of apoptosis (reduced forward and increased right angle scatter) by use of flow cytometry. Data are the frequency of apoptotic lymphocytes. histamine dihydrochloride, ranitidine, and Hp(2-20) were used at 50 μM, catalase at 100 U/ml, and SOD at 50 U/ml.

Chlamidia trachomatis = settings: ophthalmic solution 0.09% by weight, containing erythromycin, every three hours
Procedure: A subject presenting an eye infection due to Chlamidia trachomatis is treated with the compositions of the described embodiment using an ophthalmic solution of histamine dihydrochloride at 0.09% by weight of formulation. Commercially available ophthalmic solutions are well known in the art. Additionally, the ophthalmic solution, preferably in drop form, contains erythromycin. Application of the solution to the eye occurs every three hours. A solution containing only the ROM production and release inhibiting compound is given hourly to ease the discomfort of the subject.

[1] = test system: NADPH-oxidase activity of monocytes; experiment: NADPH-oxidase activity of monocytes, isoluminol-enhanced chemiluminescence; format: cell-based, human
Procedure: as §1
NADPH-oxidase activity was determined using an isoluminol-enhanced chemiluminescence (CL) system that quantitates extracellular reactive oxygen species (ROS). See Dahlgren, C., Karlsson, A. 1999. Respiratory burst in human neutrophils. J Immunol Methods 232:3-14.
Superoxide anion production in elutriated monocytes was investigated by isoluminol-amplified CL (A). Cells were treated with histamine (50 μM) or the histamine H2 receptor antagonist ranitidine (50 μM).

Tinea infection = settings: cream, 0.08% by weight, topical four to five times a day
From the text: Treatment of the subjects consists of the topical application of the medication four to five times a day at the lesion site. When treating fungal growths, care is taken not to contaminate new areas with fungal spores.

microbial infections = settings: 0.08% by weight together with antimicrobial
Procedure: The ability of the ROM production and release inhibition compounds of the described embodiment to increase the effectiveness of antimicrobials is evaluated in two groups of 10 subjects each. No subjects are suffering from active infections at the initiation of the study. Group I subjects receive the type of antimicrobial used in treating the specific infection according to the dosage given by the manufacturer. […] The healing time of the patient in each group is then monitored.

NADPH oxidase = NADPH oxidase (Homo sapiens, UniProt P04839); settings: membrane-bound phagocyte oxidase, substrate; cited from earlier work
[2] = test system: Arcanobacterium haemolyticum; settings: reported in the literature; cited from earlier work
Helicobacter pylori = experiment: Treatment of ulcers caused by Helicobacter pylori, oral controlled release device; format: in vivo; settings: in combination with chemotherapeutics
Procedure: A patient diagnosed with ulcers caused by Helicobacter pylori is treated with the compounds of the described embodiment. A controlled release mechanism is replenished with an effective dose of the ROM inhibitory compound NADPH oxidase inhibitor diphenlyeneiodonium and administered to the patient by oral intake of the device. As the device rests in the patient's stomach it simultaneously delivers the compounds of the described embodiment and decomposes in order to allow excretion from the body. The compounds of the described embodiment are administered in combination with chemotherapeutics typically administered for such an infection, such as amoxycillin, clarithromycin, tetracycline, or metronidazole.

Streptococcus mutans = experiment: Treatment of dental carries using a toothpaste and mouthwash; format: in vivo; settings: toothpaste and mouthwash 0.05% by weight, five times per day for seven days
Procedure: A subject suffering from dental carries due to Streptococcus mutans is treated with a toothpaste and a mouthwash containing the ROM inhibitory compound NADPH oxidase inhibitor diphenlyeneiodonium in a concentration of 0.05% by weight of formulation. The treatment consists of five tooth brushings with this toothpaste and mouthwash applications per day for a period of seven days.

[3] = test system: diarrhea-causing pathogens (Escherichia coli, Salmonella, Shigella or the like); experiment: Treatment of diarrhea by oral administration of a capsule; format: in vivo; settings: capsule 0.8% by weight, three to ten per day for seven to thirty days, with chemotherapeutic
Procedure: A subject suffering from diarrhea due to any number of pathogenic geni, speci, or strain of Escherichia coli, Proteus mirabilis, Salmonella enteritidis, Klebsiella Yersinia, Shigella, Serratia, Candida, Giardia intestinalis, Cryptosporidium, Vibrio cholera, Campylobacter, Ascaris or the like responsible for gastrointestinal distress in the form of diarrhea or the like is treated with a capsule containing the ROM inhibitory compound NADPH oxidase inhibitor diphenlyeneiodonium in a concentration of 0.8% by weight of formulation in addition to administration of the appropriate chemotherapeutic compound, such as an aminoglycoside, chloramphenicol, trimethoprimsulfa-methoxazole, doxycycline, or a fluoroquinolone. The treatment consists of oral intake of three to ten capsules per day for a period of seven to thirty days (depending the causative agent of the infection).

Streptococcus pneumonia = experiment: Treatment of Streptococcus pneumonia lung infection using a nebulizer; format: in vivo; settings: 0.05% by weight, mist through a nebulizer
Procedure: A subject diagnosed with Streptococcus pneumonia is treated with compounds of the described embodiment in the form of a nebulizer. The nebulizer is held firmly against the oral-nasal cavities of a patient with a respiratory infection. The nebulizer is used to deliver an aerosol mist as the patient inhales deeply. The aerosol mist contains either solely an effective amount of the preparation herein described or a mixture of the preparation and the chemotherapeutic used often administered for such an infection, such as, cephalexin. The ROM inhibitory compound NADPH oxidase inhibitor diphenlyeneiodonium in a concentration of 0.05% by weight of formulation is delivered as a mist in the patients lungs through a nebulizer.

S somaliensis = settings: McNeil and Brown 1994; cited from earlier work
[4] = test system: NADPH-oxidase activity of monocytes; settings: earlier finding, Bylund et al. 2001; cited from earlier work
[5] = ranitidine 50 μM with histamine 50 μM
[6] = histamine 50 μM, catalase 100 U/ml, SOD 50 U/ml, Hp(2-20) 50 μM, 16 hrs

With `Cl.Cl.NCCc1c[nH]cn1` [Histamine, Histamine dihydrochloride] the “Protection of NK cells and T cells from monocyte-dependent, Hp(2-20)-induced apoptosis” value (“Protection of NK cells and T cells” for short) (NK cells and T cells; dihydrochloride) was “resuced T cells and NK cells from apoptosis; also recorded: protected NK cells/T cells from the monocyte-induced apoptosis; also recorded: prevent the triggering of NK cell and T cell apoptosis; also recorded: protect T cells and NK cells from apoptotic cell death”, the “Time period of bacterial eye infection, damage and discomfort” value (Chlamidia trachomatis) was “reduces the time period of bacterial infection” and the “Inhibition of Hp(2-20)-induced oxygen radical formation in monocytes” value ([1]; histamine 50 μM, elutriated monocytes, dihydrochloride) was “markedly inhibited; also recorded: reduce or inhibit”. For the same compound, the “Healing time compared to the control group” value (Tinea infection) was “decrease in healing time” and the “Healing time with antimicrobial plus ROM inhibitory composition versus antimicrobial alone” value (microbial infections) was “faster healing time”.
In the case of `NC(=O)C1=CN([C@@H]2O[C@H](COP(=O)(O)OP(=O)(O)OC[C@H]3O[C@@H](n4cnc5c(N)ncnc54)[C@H](O)[C@@H]3O)[C@@H](O)[C@H]2O)C=CC1` [NADH], the Km (NADPH oxidase) is listed as 450 µM.
For `NC(=O)C1=CN([C@@H]2O[C@H](COP(=O)(O)OP(=O)(O)OC[C@H]3O[C@@H](n4cnc5c(N)ncnc54)[C@H](OP(=O)(O)O)[C@@H]3O)[C@@H](O)[C@H]2O)C=CC1` [NADPH], the Km (NADPH oxidase) is given as 45 µM.
In the case of `O=C(N[C@H](CO)[C@H](O)c1ccc([N+](=O)[O-])cc1)C(Cl)Cl` [chloramphenicol], the “Susceptibility of A. haemolyticum” value [2] is listed as “uniformly susceptible”.
In the case of `c1ccc2c(c1)[I+]c1ccccc1-2` [diphenlyeneiodonium], the “Treatment of gastrointestinal ulcers” value (Helicobacter pylori) is reported as “effective in expediting the treatment of gastrointestinal ulcers”, the “Treatment of dental carries” value (Streptococcus mutans) is reported as “effective in treating the dental carrier” and the Treatment of diarrhea [3] is reported as “effective in accelerating the treatment of diarrhea”. For the same compound, the “Recovery of a patient with pneumonia” value (Streptococcus pneumonia) was “hastens the recovery”.
In the case of `CC[C@H]1OC(=O)[C@H](C)[C@@H](O[C@H]2C[C@@](C)(OC)[C@@H](O)[C@H](C)O2)[C@H](C)[C@@H](O[C@@H]2O[C@H](C)C[C@H](N(C)C)[C@H]2O)[C@](C)(O)C[C@@H](C)C(=O)[C@H](C)[C@@H](O)[C@]1(C)O` [erythromycin], the “In vitro sensitivity of S somaliensis” value (S somaliensis) is given as “sensitive”.
In the case of `CC(=O)O[C@H]1C[C@@]2(C)[C@@H](C[C@@H](O)[C@H]3[C@@]4(C)CC[C@@H](O)[C@@H](C)[C@@H]4CC[C@@]32C)/C1=C(\CCC=C(C)C)C(=O)O` [fusidic acid], the “Susceptibility of A. haemolyticum” value [2] is given as “uniformly susceptible” and the “In vitro sensitivity of S somaliensis” value (S somaliensis) is given as “sensitive”.
With `CNC(=C[N+](=O)[O-])NCCSCc1ccc(CN(C)C)o1.Cl` [ranitidine, ranitidine hydrochloride] the “Effect on the histamine-induced protection of T cells and NK cells from apoptosis” value (NK cells and T cells; [5]) was “antagonized” and the “Effect on histamine's inhibition of Hp(2-20)-induced oxygen radical formation” value [1, 5] was “reversed the inhibition”.
For `[H]/N=C(/N)N[C@H]1[C@H](O)[C@@H](O)[C@H](O[C@@H]2O[C@@H](C)[C@](O)(C=O)[C@H]2O[C@@H]2O[C@@H](CO)[C@H](O)[C@@H](O)[C@@H]2NC)[C@@H](N/C(N)=N\[H])[C@@H]1O` [streptomycin], the “In vitro sensitivity of S somaliensis” value (S somaliensis) is given as “sensitive”.
For `NC[C@H]1O[C@H](O[C@H]2[C@H](O)[C@@H](O[C@H]3O[C@H](CO)[C@@H](O)[C@H](N)[C@H]3O)[C@H](N)C[C@@H]2N)[C@H](N)C[C@@H]1O` [tobramycin], the “In vitro sensitivity of S somaliensis” value (S somaliensis) is given as “sensitive”.
In the case of `COc1cc(Cc2cnc(N)nc2N)cc(OC)c1OC` [trimethoprim], the “In vitro sensitivity of S somaliensis” value (S somaliensis) is given as “resistant”.
In the case of “AKKVFKRLEKLFSKIQNDK [Hp(2-20), cecropin-like peptide derived from Helicobacter pylori]”, the “Induction of NK cell and T cell apoptosis by monocytes treated with the peptide” value (NK cells and T cells; Hp(2-20) 50 μM, lymphocytes + 25% or 50% monocytes, overnight (16 hrs) incubation) is given as “induces apoptosis of T lymphocytes with CD3ε^+ phenotype and natural killer cells with CD56^+ phenotype; also recorded: triggers programmed cell death (apoptosis) of NK cells and T cells; also recorded: pronounced in NK cells as well as in CD3ε^+ T cells; also recorded: triggered NK cell and T cell death by apoptosis” and the “Superoxide anion formation in phagocytic cells” value [4] is given as “potently triggers superoxide anion formation”.
In the case of Superoxide dismutase [SOD], the “Protection of NK cells and T cells” value (NK cells and T cells; [6]) is reported as “completely prevented”.
For catalase, the “Protection of NK cells and T cells” value (NK cells and T cells; [6]) was “completely prevented”.
